Experimental findings from patent US20260007133A1, “HERBICIDAL COMPOSITION COMPRISING AZINE COMPOUNDS” (BASF SE, priority 2022, published 2026) are described below.

Format in all cases: in vivo
For experiment [1], the system named is Geranium pusillum. Put plainly: Greenhouse post-emergence (POST) herbicidal test on GERPU. Here is the method:
(§1) The culture containers used were plastic pots containing loamy sand with approximately 3.0% of humus as substrate. The seeds of the test plants were sown separately for each species.
(§2) For the post-emergence treatment, the test plants were grown to a plant height of from 3 to 15 cm, depending on the plant habit, and only then treated with the active compounds which had been suspended or emulsified in water. To this end, the test plants were either sown directly, and grown in the same containers, or they were first grown separately as seedlings and transplanted into the test containers a few days prior to treatment.
(§3) Depending on the species, the plants were kept at 10-25° C. and 20-35° C., respectively.
(§4) The test period extended over 2 to 4 weeks. During this time, the plants were tended and their response to the individual treatments was evaluated.
(§5) Evaluation was carried out using a scale from 0 to 100. 100 means no emergence of the plants, or complete destruction of at least the above-ground parts, and 0 means no damage or normal course of growth. A good herbicidal activity is given at values of at least 70, and very good herbicidal activity is given at values of at least 85.
(§6) If not stated differently, the respective components A and B, and if appropriate, C were formulated as a 5% by weight strength emulsion concentrate and, with addition of the amount of solvent system, introduced into the spray liquor used for applying the active compound.
(§7) As indicated application was either post emergent (POST) at the respective growth stage (GS) of the weed (BBCH code), or pre-emergent (PRE). […]

The subject of experiment [2] is Commelina benghalensis. Briefly: Greenhouse pre-emergence (PRE) herbicidal test on COMBE. Here is the method: as §1
(§8) The containers were irrigated gently to promote germination and growth and subsequently covered with transparent plastic hoods until the plants had rooted.
as §3, §4, §5, §7

Experiment [3] relates to Abutilon theophrasti. Put plainly: Greenhouse pre-emergence (PRE) herbicidal test on ABUTH. Here is the method:
as §1, §8, §3, §4, §5, §7

The test system of experiment [4] is Echinochloa crus-galli. Briefly: Greenhouse post-emergence (POST) herbicidal test on ECHCG. Here is the method: as §1, §2, §3, §4, §5, §6, §7
In experiment [5] the test system is Digitaria sanguinalis. Briefly: Greenhouse post-emergence (POST) herbicidal test on DIGSA. The procedure:
as §1, §2, §3, §4, §5, §6, §7

Experiment [6] relates to Lolium multiflorum. Briefly: Greenhouse pre-emergence (PRE) herbicidal test on LOLMU. Here is the method: as §1, §8, §3, §4, §5, §7
For experiment [7], the system named is Ambrosia artemisiifolia. Put plainly: Greenhouse pre-emergence (PRE) herbicidal test on AMBEL. The procedure: as §1, §8, §3, §4, §5, §7
In experiment [8] the test system is Euphorbia heterophylla. Put plainly: Greenhouse pre-emergence (PRE) herbicidal test on EPHHL. The note with it: Euphorbia heterophylla, pre-emergence. The procedure: as §1, §8, §3, §4, §5, §7
Experiment [9] has as its system Alopecurus myosuroides. Put plainly: Greenhouse pre-emergence (PRE) herbicidal test on ALOMY. The procedure:
as §1, §8, §3, §4, §5, §7

In experiment [10] the test system is Abutilon theophrasti. Put plainly: Greenhouse post-emergence (POST) herbicidal test on ABUTH. Here is the method:
as §1, §2, §3, §4, §5, §6, §7

[11] abbreviates: Digitaria sanguinalis, post-emergence, read-out: % activity.
Where [12] appears, read: PRE, use rate 0.25 gai/ha, 20 DAT.

On to `CCNc1nc(Cl)nc(NC(C)C)n1` [Atrazine, atrazine], for which the inhibition at 50 g/ha in [1] (Geranium pusillum, post-emergence, 480 h, POST, GERPU, use rate 50 gai/ha, 20 DAT) came out at 30%; in experiment [3] (Abutilon theophrasti, pre-emergence, 480 h, PRE, ABUTH, use rate 50 gai/ha, 20 DAT), 0%. Further, the inhibition at 100 g/ha in experiment [1] (Geranium pusillum, post-emergence, 480 h, POST, GERPU, use rate 100 gai/ha, 20 DAT, read-out: % activity) came to 75%; in experiment [2] (Commelina benghalensis, pre-emergence, 480 h, PRE, COMBE, use rate 100 gai/ha, 20 DAT), 25%.

Take `CCCCOC(=O)[C@@H](C)Oc1ccc(Oc2ccc(C#N)cc2F)cc1` [Cyhalofop-Butyl, cyhalofop-butyl]: the inhibition at 6.25 g/ha worked out at 80% in [4] (Echinochloa crus-galli, post-emergence, read-out: % activity) and 35% in experiment [5] (setting [11]). For the same molecule, the inhibition at 25 g/ha in experiment [5] (setting [11]) came out at 70%.

Take `CCOC(=O)COc1ncccc1Oc1cc(-n2c(=O)cc(C(F)(F)F)n(C)c2=O)c(F)cc1Cl` [Epyrifenacil, epyrifenacil]: the “% activity” value in [4] (ECHCG POST, use rate 1 gai/ha) is 45%; in experiment [5] (DIGSA POST, use rate 0.5 gai/ha), 20%; in experiment [5] (DIGSA POST, use rate 1 gai/ha) it was 55%.

`CCOC1Oc2ccc(OS(C)(=O)=O)cc2C1(C)C` (stereo not drawn) [Ethofumesate, ethofumesate] yielded an inhibition at 1000 g/ha in [6] (Lolium multiflorum, pre-emergence, 480 h, PRE, use rate 1000 gai/ha, 20 DAT) of 60%. Besides, the inhibition at 250 g/ha in [7] (Ambrosia artemisiifolia, pre-emergence, 480 h, PRE, use rate 250 gai/ha, 20 DAT) worked out at 0%.

Regarding `CCc1cnc(C2=NC(C)(C(C)C)C(=O)N2)c(C(=O)O)c1` (stereo not drawn) [Imazethapyr, imazethapyr], the inhibition at […] in experiment [2] (Commelina benghalensis, pre-emergence, PRE, COMBE, use rate 7.5 gai/ha, read-out: % activity) is 30%; in [3] (Abutilon theophrasti, pre-emergence, PRE, ABUTH, use rate 7.5 gai/ha, read-out: % activity), 60%; in [7] (Ambrosia artemisiifolia, pre-emergence, PRE, AMBEL, use rate 7.5 gai/ha, read-out: % activity) it was 0%. The inhibition at 15 g/ha in experiment [2] (Commelina benghalensis, pre-emergence, PRE, COMBE, use rate 15 gai/ha) amounted to 70%; in [6] (Lolium multiflorum, pre-emergence, PRE, LOLMU, use rate 15 gai/ha), 40%; in [7] (Ambrosia artemisiifolia, pre-emergence, PRE, AMBEL, use rate 15 gai/ha), 10%.

Consider `CS(=O)(=O)c1cc(C(F)(F)F)ccc1C(=O)c1cnoc1C1CC1` [Isoxaflutole, isoxaflutole], for which the inhibition at 6.3 g/ha came out at 45% in [3] (Abutilon theophrasti, pre-emergence, ABUTH PRE, use rate 6.3 gai/ha); 45% in experiment [8] (EPHHL PRE, use rate 6.3 gai/ha); 0% in [6] (Lolium multiflorum, pre-emergence, LOLMU PRE, use rate 6.3 gai/ha); 25% in [7] (Ambrosia artemisiifolia, pre-emergence, AMBEL PRE, use rate 6.3 gai/ha); 0% in experiment [9] (Alopecurus myosuroides, pre-emergence, ALOMY PRE, use rate 6.3 gai/ha). The inhibition at 25 g/ha is 75% in experiment [8] (EPHHL PRE, use rate 25 gai/ha) and 0% in [9] (Alopecurus myosuroides, pre-emergence, ALOMY PRE, use rate 25 gai/ha).

`CP(=O)(O)CC[C@H](N)C(=O)O.N` [L-Glufosinate-P-Ammonium]: the “% activity” value is listed as 65% in experiment [1] (POST, GERPU, use rate 75 gai/ha, 20 DAT) and 30% in [4] (POST, ECHCG, use rate 75 gai/ha, 20 DAT).

Take `COC(=O)c1ccc(CNS(C)(=O)=O)cc1S(=O)(=O)NC(=O)Nc1nc(OC)cc(OC)n1` [Mesosulfuron-Methyl, mesosulfuron-methyl]: the “% activity” value in experiment [2] (setting [12]) is 35%; in experiment [6] (setting [12]) it was 0%; in experiment [6] (PRE, use rate 1 gai/ha, 20 DAT), 0%; in [9] (setting [12]) it was 0%; in experiment [9] (PRE, use rate 1 gai/ha, 20 DAT), 10%.

Regarding `CS(=O)(=O)c1ccc(C(=O)C2C(=O)CCCC2=O)c([N+](=O)[O-])c1` [Mesotrione, mesotrione], the inhibition at 4 g/ha in [2] (Commelina benghalensis, pre-emergence, COMBE PRE, use rate 4 gai/ha) is 25%; in experiment [8] (EPHHL PRE, use rate 4 gai/ha), 20%. Moreover, the inhibition at 16 g/ha in experiment [8] (EPHHL PRE, use rate 16 gai/ha) was determined as 45%.

As for `C[C@@H](Oc1ccc(Oc2nc3ccc(Cl)cc3o2)cc1)C(=O)N(C)c1ccccc1F` [Metamifop, metamifop], the “% activity” value in [4] (ECHCG POST, use rate 6.25 gai/ha) was found to be 50%; in experiment [5] (DIGSA POST, use rate 25 gai/ha), 85%.

For `CSc1nnc(C(C)(C)C)c(=O)n1N` [Metribuzin, metribuzin], the inhibition at 31.25 g/ha in experiment [1] (Geranium pusillum, post-emergence, GERPU POST, use rate 31.25 gai/ha) was determined as 70%; in experiment [2] (Commelina benghalensis, pre-emergence, COMBE PRE, use rate 31.25 gai/ha), 10%. Further, in [2] (Commelina benghalensis, pre-emergence, COMBE PRE, use rate 62.5 gai/ha), the inhibition at 62.5 g/ha was determined as 20%.

In the case of `COc1cnc(OC)n2nc(NS(=O)(=O)c3c(OCC(F)F)cccc3C(F)(F)F)nc12` [Penoxsulam, penoxsulam], the inhibition at 2 g/ha in [4] (Echinochloa crus-galli, post-emergence, ECHCG POST, use rate 2 gai/ha, read-out: % activity) was found to be 10%; in experiment [5] (Digitaria sanguinalis, post-emergence, DIGSA POST, use rate 2 gai/ha, read-out: % activity), 0%. Also, the inhibition at 4 g/ha in [4] (Echinochloa crus-galli, post-emergence, ECHCG POST, use rate 4 gai/ha) came to 35%; in experiment [5] (Digitaria sanguinalis, post-emergence, DIGSA POST, use rate 4 gai/ha), 10%; in experiment [10] (Abutilon theophrasti, post-emergence, ABUTH POST, use rate 4 gai/ha), 0%.

Regarding `CCCN(CCC)C(=O)SCc1ccccc1` [Prosulfocarb, prosulfocarb], the pest or weed control at 600 g/ha in [1] (Geranium pusillum, post-emergence, 480 h, POST, GERPU, Prosulfocarb solo 600 gai/ha, 20 DAT) was 20%; in experiment [3] (Abutilon theophrasti, pre-emergence, 480 h, PRE, ABUTH, Prosulfocarb solo 600 gai/ha, 20 DAT), 40%; in experiment [5] (Digitaria sanguinalis, post-emergence, 480 h, POST, DIGSA, Prosulfocarb solo 600 gai/ha, 20 DAT) it was 5%; in [8] (480 h, PRE, EPHHL, Prosulfocarb solo 600 gai/ha, 20 DAT), 5%; in experiment [6] (Lolium multiflorum, pre-emergence, 480 h, PRE, LOLMU, Prosulfocarb solo 600 gai/ha, 20 DAT), 20%; in [7] (Ambrosia artemisiifolia, pre-emergence, 480 h, PRE, AMBEL, Prosulfocarb solo 600 gai/ha, 20 DAT), 10%. Besides, the pest or weed control at 150 g/ha turned out to be 5% in [8] (480 h, PRE, EPHHL, Prosulfocarb solo 150 gai/ha, 20 DAT) and 15% in experiment [6] (Lolium multiflorum, pre-emergence, 480 h, PRE, LOLMU, Prosulfocarb solo 150 gai/ha, 20 DAT).

In the case of `C#CCN1C(=O)C(F)(F)Oc2cc(F)c(-n3c(=O)n(C)c(=S)n(C)c3=O)cc21` [Trifludimoxazin, trifludimoxazin], the “% activity” value in experiment [3] (PRE, ABUTH, use rate 0.5 gai/ha) was 0%; in experiment [5] (POST, DIGSA, use rate 1 gai/ha), 30%; in [7] (PRE, AMBEL, use rate 0.5 gai/ha) it was 0%; in [10] (POST, ABUTH, use rate 0.5 gai/ha), 80%; in experiment [9] (PRE, ALOMY, use rate 0.5 gai/ha), 10%.

`CCCN(CCC)c1c([N+](=O)[O-])cc(C(F)(F)F)cc1[N+](=O)[O-]` [Trifluralin, trifluralin]: the pest or weed control at 500 g/ha was found to be 25% in experiment [1] (Geranium pusillum, post-emergence, 480 h, POST, GERPU, Trifluralin solo 500 gai/ha, 20 DAT, read-out: % activity); 25% in experiment [3] (Abutilon theophrasti, pre-emergence, 480 h, PRE, ABUTH, Trifluralin solo 500 gai/ha, 20 DAT, read-out: % activity); 5% in experiment [6] (Lolium multiflorum, pre-emergence, 480 h, PRE, LOLMU, Trifluralin solo 500 gai/ha, 20 DAT, read-out: % activity); 10% in [7] (Ambrosia artemisiifolia, pre-emergence, 480 h, PRE, AMBEL, Trifluralin solo 500 gai/ha, 20 DAT, read-out: % activity); 15% in experiment [10] (Abutilon theophrasti, post-emergence, 480 h, POST, ABUTH, Trifluralin solo 500 gai/ha, 20 DAT, read-out: % activity). For the same molecule, the pest or weed control at 1000 g/ha in experiment [1] (Geranium pusillum, post-emergence, 480 h, POST, GERPU, Trifluralin solo 1000 gai/ha, 20 DAT) worked out at 85%; in experiment [2] (Commelina benghalensis, pre-emergence, 480 h, PRE, COMBE, Trifluralin solo 1000 gai/ha, 20 DAT) it was 80%; in experiment [8] (480 h, PRE, EPHHL, Trifluralin solo 1000 gai/ha, 20 DAT), 35%; in [6] (Lolium multiflorum, pre-emergence, 480 h, PRE, LOLMU, Trifluralin solo 1000 gai/ha, 20 DAT) it was 15%; in experiment [10] (Abutilon theophrasti, post-emergence, 480 h, POST, ABUTH, Trifluralin solo 1000 gai/ha, 20 DAT), 70%; in experiment [9] (Alopecurus myosuroides, pre-emergence, 480 h, PRE, ALOMY, Trifluralin solo 1000 gai/ha, 20 DAT) it was 65%.
